Measurements from patent US20120122840A1, “COMPOUNDS AND THERAPEUTIC USES THEREOF” (Myrexis, Inc., priority 2009, published 2012).
Each block holds one molecule with its values, some of them ahead of it. Peptide text beside a SMILES is read from it. * marks the point of attachment. Cbz = O=C(OCc1ccccc1)*; CH2F = FC*

Experiments:
HeLa cells = assay: Cell cycle progression after double thymidine block (propidium iodide, flow cytometry); type: cell-based; settings: VX-680 at 500 nM
Description: HeLa cells were synchronized in the G1 phase of the cell cycle using a double thymidine block. The cells were released from the block by removing the media and replacing it with media containing DMSO, 500 nM VX-680 (Aurora inhibitor), or a TTK inhibitor. At the indicated time points, cells were fixed with methanol, permeabilized and stained with propidium iodide. DNA content was analyzed using a Guava EasyCyte flow cytometer.
This is due to improper spindle formation and chromosome segregation followed by failed cytokinesis. Previously, it has been shown that inhibition of TTK using siRNA results in chromosome missegregation and mitotic defects. Using TTK inhibitors of the present invention, defects in chromosome segregation were observed. Therefore, the effect of the TTK inhibitors of the present invention were analyzed for their effect on cell cycle progression and/or DNA content.

[1] = test system: p53 on serine 15 and H2AX on serine 139; assay: Effect of ATM, ATM/ATR and DNA-PK inhibitors on Compound A-induced phosphorylation in HCT-116 cells; type: cell-based; settings: 5 μM inhibitor with 1 μM Compound A
Description: Phosphorylation of either p53 on serine 15 or H2AX on serine 139 is often mediated by the DNA damage checkpoint proteins, ATM or ATR. […] As a positive control, cells were treated with the UV mimetic 4-NQO (5 μM). Cell lysates were analyzed by Western blot with anti-p53, anti-p53-pS15, anti-H2AX-pS139 and anti-GAPDH antibodies (see FIGS. 6A-6C). […] Phosphorylation of p53 on serine 15 and H2AX on serine 139 appears mediated by ATR kinase in response to TTK inhibition.

HCT-116 cells = assay: Effect of caspase inhibition on Compound A responses in HCT-116 cells; type: cell-based
Description: Caspase 3/7 activity was determined with a Caspase-Glo 3/7 assay (see FIG. 7A). Cell lysates were analyzed by Western blot with antibodies specific for H2AX-pS139, p53-pS15, p53 or GAPDH (see FIG. 7B).

JAK1 [2] = molecular target: T1, JAK1 (Homo sapiens, UniProt P23458); assay: In vitro binding assays
T1 construct: Cellular proteins were prepared by mild sonication in lysis buffer; endogenous in cells

JNK [3] = molecular target: T2, JNK (Homo sapiens, UniProt P45983); assay: Direct target affinity purification (DTAP) from cell lysates; type: binding; settings: compound coupled to Sepharose beads
Text: (§1) Direct target affinity purification (DTAP) was used to investigate (1) the selectivity of compounds of the invention for TTK, relative to other kinases, and (2) the importance of a specific methyl substituent in providing that selectivity.
(§2) In preparation for DTAP studies, the two compounds depicted above were synthesized with an alkyl-amine linker to allow covalent coupling to epoxy-activated Sepharose 6B beads (GE Healthcare, Piscataway, N.J.). Sepharose beads were swollen and washed with water for 30 min followed by equilibration in coupling buffer (50% dimethylformamide, 50 mM Na2CO3). Beads were pelleted by centrifugation (15 sec at 2000×g) and the supernatant removed by aspiration. An equal volume of coupling buffer containing the linkered test compound was used to resuspend the beads. Compound concentrations in the coupling reaction ranged from 0.1 mM to 12.5 mM. The coupling reactions were incubated at 34° C. for 18 hrs on a rotator mixer. Ethanolamine was added to 1 M for the final 1 hr to quench the coupling reaction. Beads were washed extensively with binding buffer (1 M NaCl, 50 mM Hepes [pH 7.4], 1% Triton X-100, 1 mM EDTA and 1 mM dithiothreitol) to remove residual coupling reagents, and were then stored at 4° C.
(§3) Cellular proteins were prepared by mild sonication in lysis buffer (150 mM NaCl, 50 mM Hepes [pH 7.4], 1% Triton X-100, 1 mM EDTA and 2 mM dithiothrietol containing 1× Halt™ protease and phosphatase inhibitor cocktail [Thermo Fisher Scientific, Rockford, Ill.]). Lysates were centrifuged (20,000×g for 20 min) to remove debris, diluted to a protein concentration of ˜5 mg/ml, divided into aliquots, and stored at −80° C.
(§4) For DTAP reactions, cell lysates (˜0.5 ml per binding reaction) were thawed and the NaCl concentration adjusted to 1 M. Competitor compounds dissolved in DMSO (or a DMSO control) were then added to the lysate and incubated on ice for 5 min. The lysates were centrifuged at 20,000×g for 10 min and the cleared supernatant was transferred to a tube containing 50 μl of coupled beads. The binding reactions were incubated on a rotator mixer at 4° C. for 2 hrs, after which the beads were pelleted by centrifugation and the supernatant removed by aspiration. The beads were washed three times with 20 volumes of binding buffer, 2× with 20 volumes wash buffer (150 mM NaCl, 50 mM Hepes [pH 7.4], 1% Tween 20, 1 mM EDTA, 2 mM dithiothrietol) and finally twice with 10 volumes of 150 mM NaCl, 50 mM Hepes [pH 7.4].
(§5) During the final wash, an aliquot containing 10 μl of beads was transferred to a separate tube and resuspended with 15 μl of 2× SDS/PAGE loading buffer (Invitrogen Corporation, Carlsbad, Calif.) for 5 min at 90° C. The eluted proteins were resolved by electrophoresis on a NuPage 4-12% Bis-Tris Gel (Invitrogen Corporation, Carlsbad, Calif.) and visualized by staining with Ruby Red (Invitrogen Corporation, Carlsbad, Calif.). The remaining beads (40 μl) were processed for analysis by mass spectrometry.

FER [4] = molecular target: T3, FER (Homo sapiens, UniProt P16591); assay: as above; type: binding; settings: compound coupled to Sepharose beads
Text: as §1, §2, §3, §4, §5

JAK1 [5] = molecular target: T1, JAK1; assay: as above; type: binding; settings: compound coupled to Sepharose beads
Text: as §1, §2, §3, §4, §5

Aurora A [6] = molecular target: T4, Aurora A (Homo sapiens, UniProt O14965); assay: as above; type: binding; settings: compound coupled to Sepharose beads
T4 sequence (O14965 1-403): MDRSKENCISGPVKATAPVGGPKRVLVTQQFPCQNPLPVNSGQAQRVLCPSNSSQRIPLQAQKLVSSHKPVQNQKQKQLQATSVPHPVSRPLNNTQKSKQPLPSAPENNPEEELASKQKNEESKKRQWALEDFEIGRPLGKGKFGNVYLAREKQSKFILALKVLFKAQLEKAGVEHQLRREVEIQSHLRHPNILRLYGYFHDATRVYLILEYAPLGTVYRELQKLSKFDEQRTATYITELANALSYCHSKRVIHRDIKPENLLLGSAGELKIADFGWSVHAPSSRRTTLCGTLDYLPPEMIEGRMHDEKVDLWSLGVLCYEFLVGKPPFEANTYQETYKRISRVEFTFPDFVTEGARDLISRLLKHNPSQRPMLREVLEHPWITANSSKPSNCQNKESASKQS
Text: as §1, §2, §3, §4, §5

JNK [7] = molecular target: T2, JNK; assay: In vitro binding assays
TTK = molecular target: T5, TTK (Homo sapiens, UniProt P33981); assay: TTK inhibition assay ([γ-33P]ATP transfer to phosphorylated MBP); type: biochemical; parameters: A. Recombinant TTK enzyme; settings: read-out: inhibition of the protein kinase activity of TTK, IC50
T5 sequence (P33981 1-857): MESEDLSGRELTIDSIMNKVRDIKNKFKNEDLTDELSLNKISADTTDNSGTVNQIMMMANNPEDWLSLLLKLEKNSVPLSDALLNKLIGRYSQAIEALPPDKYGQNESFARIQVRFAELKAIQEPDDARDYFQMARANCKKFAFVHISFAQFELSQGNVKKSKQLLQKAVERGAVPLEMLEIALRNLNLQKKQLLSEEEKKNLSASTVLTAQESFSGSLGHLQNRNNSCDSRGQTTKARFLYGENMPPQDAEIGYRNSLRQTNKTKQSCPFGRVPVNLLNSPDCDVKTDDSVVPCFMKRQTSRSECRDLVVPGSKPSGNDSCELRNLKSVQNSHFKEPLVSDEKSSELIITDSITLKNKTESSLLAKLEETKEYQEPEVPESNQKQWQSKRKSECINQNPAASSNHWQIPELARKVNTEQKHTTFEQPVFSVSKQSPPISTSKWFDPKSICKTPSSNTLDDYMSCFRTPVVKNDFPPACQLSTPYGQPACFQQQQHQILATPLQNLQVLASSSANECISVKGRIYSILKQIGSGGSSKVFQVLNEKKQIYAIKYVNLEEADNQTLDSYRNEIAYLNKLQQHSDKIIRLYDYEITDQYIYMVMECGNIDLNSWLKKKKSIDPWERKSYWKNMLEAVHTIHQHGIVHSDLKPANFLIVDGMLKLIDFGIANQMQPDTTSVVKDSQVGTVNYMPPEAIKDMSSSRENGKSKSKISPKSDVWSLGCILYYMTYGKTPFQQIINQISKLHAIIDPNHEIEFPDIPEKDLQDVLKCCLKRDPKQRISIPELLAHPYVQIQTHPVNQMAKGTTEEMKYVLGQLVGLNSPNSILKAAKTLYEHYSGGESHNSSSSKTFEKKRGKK
Description: The compounds of the invention were also tested in the following assay to determine TTK-inhibitory activity. This assay measures transfer of radioactive phosphate from ATP to a protein substrate in the presence or absence of a test compound.
MATERIALS: • A. Recombinant TTK enzyme; • B. Phosphorylated myelin basic protein (MBP); • C. [γ-^33P]ATP: 1 mCi/100 μL; • D. Positive Control: a proprietary compound known to have […] in this assay.
Final concentrations of reaction mixture components (50 μl total volume): 50 mM Tris-HCl, pH 7.5; 0.01% Triton X-100; 10 mM MgCl2; 25 ng TTK (˜4 nM); 5 μM Phosphorylated MBP; 40 μM ATP (1 μCi/well, adjusted ATP specific activity according to strength of radiolabeled ATP).
Mixes were assembled in the wells of a 96-well polypropylene plate as follows: 1 μL 50× compound to be tested; 39 μL 1.282× Reaction Mix; 10 μL 5×ATP Mix.
The following reaction/assay steps were then performed: • 1. Mix thoroughly and incubate at room temperature for 45 minutes; • 2. Add 70 μL/well, except in background wells, of 3% phosphoric acid to terminate reaction, and transfer 100 μL to P81 filter plate; • 3. Wash with 1% phosphoric acid, then dry the P81 filter plate completely; • 4. Add 100 μL/well MicroSint-20 (PerkinElmer #6013621) and seal; • 5.

FER [8] = molecular target: T3, FER; assay: In vitro binding assays
Aurora A [9] = molecular target: T4, Aurora A; assay: In vitro binding assays

T2 sequence (P45983 whole entry): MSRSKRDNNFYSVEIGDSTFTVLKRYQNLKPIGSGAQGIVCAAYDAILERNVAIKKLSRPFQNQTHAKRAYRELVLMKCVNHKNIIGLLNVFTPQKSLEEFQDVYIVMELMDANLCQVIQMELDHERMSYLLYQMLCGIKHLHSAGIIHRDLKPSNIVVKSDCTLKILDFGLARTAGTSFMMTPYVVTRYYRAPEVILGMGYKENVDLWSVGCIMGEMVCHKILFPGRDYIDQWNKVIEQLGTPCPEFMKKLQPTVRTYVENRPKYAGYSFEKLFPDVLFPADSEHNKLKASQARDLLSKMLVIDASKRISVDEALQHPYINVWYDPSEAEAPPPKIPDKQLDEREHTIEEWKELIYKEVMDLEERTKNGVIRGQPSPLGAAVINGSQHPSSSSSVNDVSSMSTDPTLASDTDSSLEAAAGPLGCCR
T1 sequence (P23458 whole entry, species assumed): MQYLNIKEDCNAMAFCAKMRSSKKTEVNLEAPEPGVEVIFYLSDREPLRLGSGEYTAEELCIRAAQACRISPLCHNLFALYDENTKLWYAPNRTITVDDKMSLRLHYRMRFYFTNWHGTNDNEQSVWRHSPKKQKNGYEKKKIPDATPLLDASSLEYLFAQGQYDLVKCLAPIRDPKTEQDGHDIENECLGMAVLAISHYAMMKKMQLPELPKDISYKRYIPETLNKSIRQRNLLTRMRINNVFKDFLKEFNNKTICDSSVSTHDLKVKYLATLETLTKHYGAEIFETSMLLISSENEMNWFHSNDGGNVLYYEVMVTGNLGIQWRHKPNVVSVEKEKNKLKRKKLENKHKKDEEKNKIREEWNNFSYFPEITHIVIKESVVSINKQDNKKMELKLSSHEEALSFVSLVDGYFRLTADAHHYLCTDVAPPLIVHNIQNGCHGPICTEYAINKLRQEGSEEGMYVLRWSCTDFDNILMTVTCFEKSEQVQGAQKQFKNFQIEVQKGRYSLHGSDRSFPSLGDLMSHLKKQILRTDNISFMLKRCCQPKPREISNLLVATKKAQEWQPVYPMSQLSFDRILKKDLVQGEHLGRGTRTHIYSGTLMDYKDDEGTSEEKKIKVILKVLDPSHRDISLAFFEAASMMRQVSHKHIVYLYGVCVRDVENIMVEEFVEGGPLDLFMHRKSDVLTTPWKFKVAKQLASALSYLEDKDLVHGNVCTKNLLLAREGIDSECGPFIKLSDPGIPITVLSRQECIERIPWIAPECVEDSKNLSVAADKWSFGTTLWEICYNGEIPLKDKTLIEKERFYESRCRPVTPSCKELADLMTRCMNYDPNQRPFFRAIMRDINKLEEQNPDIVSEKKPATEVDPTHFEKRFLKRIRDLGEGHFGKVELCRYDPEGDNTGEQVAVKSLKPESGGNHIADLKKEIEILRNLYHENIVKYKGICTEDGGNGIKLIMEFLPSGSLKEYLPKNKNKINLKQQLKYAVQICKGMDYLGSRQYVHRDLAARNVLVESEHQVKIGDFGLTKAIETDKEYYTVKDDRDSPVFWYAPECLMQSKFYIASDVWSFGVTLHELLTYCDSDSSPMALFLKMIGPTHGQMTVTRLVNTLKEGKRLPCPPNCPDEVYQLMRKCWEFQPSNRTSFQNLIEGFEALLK
T3 sequence (P16591 whole entry, species assumed): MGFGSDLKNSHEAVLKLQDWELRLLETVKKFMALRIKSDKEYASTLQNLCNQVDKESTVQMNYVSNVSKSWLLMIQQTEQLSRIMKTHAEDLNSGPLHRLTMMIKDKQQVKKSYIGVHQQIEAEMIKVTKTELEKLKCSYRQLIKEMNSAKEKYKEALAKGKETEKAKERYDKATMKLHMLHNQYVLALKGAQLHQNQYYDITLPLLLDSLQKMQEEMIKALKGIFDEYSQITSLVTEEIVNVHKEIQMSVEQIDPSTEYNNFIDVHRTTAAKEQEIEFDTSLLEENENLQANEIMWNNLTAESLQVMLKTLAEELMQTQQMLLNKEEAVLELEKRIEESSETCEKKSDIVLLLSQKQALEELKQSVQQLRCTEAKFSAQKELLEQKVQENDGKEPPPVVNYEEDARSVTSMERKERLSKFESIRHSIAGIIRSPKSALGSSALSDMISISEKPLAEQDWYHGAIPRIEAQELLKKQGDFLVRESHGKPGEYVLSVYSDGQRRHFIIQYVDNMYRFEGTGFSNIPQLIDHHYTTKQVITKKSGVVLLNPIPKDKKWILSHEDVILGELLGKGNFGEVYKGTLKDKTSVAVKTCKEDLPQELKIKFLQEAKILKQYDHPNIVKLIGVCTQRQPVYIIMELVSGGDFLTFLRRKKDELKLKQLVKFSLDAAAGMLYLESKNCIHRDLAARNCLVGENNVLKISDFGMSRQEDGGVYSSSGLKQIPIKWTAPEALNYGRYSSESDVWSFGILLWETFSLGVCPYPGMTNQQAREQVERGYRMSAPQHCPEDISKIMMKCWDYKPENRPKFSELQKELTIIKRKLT

Compound: Cc1cc(Nc2cc(N3CCN(C)CC3)nc(Sc3ccc(NC(=O)C4CC4)cc3)n2)n[nH]1 [VX-680]
- DNA content / cell cycle progression after release from G1 block (HeLa cells): causes cells to become tetraploid

Compound: O=C(NC(NC(=S)Nc1ccc(F)c([N+](=O)[O-])c1)C(Cl)(Cl)Cl)C(c1ccccc1)c1ccccc1 (centres unmarked) [CGK733]
- effect on p53 (and H2AX) phosphorylation in response to Compound A [1]: blocked p53 and H2AX phosphorylation

Compound: O=c1cc(-c2cccc3c2Sc2ccccc2S3)oc(N2CCOCC2)c1 [KU-55933]
- effect on p53 (and H2AX) phosphorylation in response to Compound A [1]: had no effect

Compound: COC(=O)C[C@H](NC(=O)[C@H](C)NC(=O)[C@@H](NC(=O)OCc1ccccc1)C(C)C)C(=O)CF [Z-VAD-FMK] (Cbz-Val-Ala-Asp(OMe)-CH2F)
- effect on TTK inhibitor-induced H2AX phosphorylation (HCT-116 cells; 100 μM Z-VAD-FMK 1 hour before 1 μM Compound A, 48 hours): prevents TTK inhibitor-induced H2AX phosphorylation
- effect on TTK inhibitor-induced p53 phosphorylation and on cell viability (HCT-116 cells; 100 μM Z-VAD-FMK pre-treatment, viability after 72 hours (Cell Titer-Glo)): has no effect on either p53 phosphorylation or cell viability

- IC50 (JAK1 [2]): > 5000 nM
- binding of JNK from cell lysates to bead-coupled compound (JNK [3]): reduced affinity
- binding of FER from cell lysates to bead-coupled compound (FER [4]): reduced affinity
- binding of JAK1 from cell lysates to bead-coupled compound (JAK1 [5]): reduced affinity
- binding of Aurora A from cell lysates to bead-coupled compound (Aurora A [6]): failed to bind
- IC50 (JNK [7]): 120 nM
- IC50 (TTK): 3 nM
- IC50 (FER [8]): 380 nM
- IC50 (Aurora A [9]): > 5000 nM
Compound: Cc1cc(OCCCN)ccc1Nc1nc(NC2CCCCC2)c2nc[nH]c2n1 [N2-(4-(3-Aminopropoxy)-2-methylphenyl)-N6-cyclohexyl-9H-purine-2,6-diamine]
